Data: paper PMC7916974 (Viruses, 2021)
Like-named read-outs stand apart in the source and are kept apart here.

Key:
[1] = tested on: A/Virginia/ATCC2/2009 H1N1; test: microbe, parasite or virus in culture; format: cell-based; conditions: Influenza A virus, MDCK, 72 h
[2] = tested on: A/Weiss/43 H1N1; format: cell-based, influenza A virus; conditions: 6.25–100 µM
[3] = tested on: A/Weiss/43 H1N1
[4] = Cytotoxicity assay (MTT), MDCK cells; format: cell-based, canine; conditions: dog; for CC50 at 72 h: MDCK cells, MTT, read-out: CC50 (50% cytotoxic concentration)
[5] = tested on: A549 cells infected with A/Weiss/43 H1N1; format: cell-based; conditions: 24 h
[6] = tested on: influenza A virus; format: cell-based
[7] = tested on: A/California/2/2014 H3N2; test: microbe, parasite or virus in culture; format: cell-based; conditions: Influenza A virus, H3N2, MDCK, 72 h
[8] = tested on: A/Weiss/43 H1N1; test: Infected mouse model: lung index, symptoms; format: in vivo, BALB/c mice; conditions: for clinical symptoms of infected mice: intragastric once a day for six days
[9] = tested on: A/Weiss/43 H1N1; format: cell-based, influenza A virus
[10] = tested on: IAV; test: microbe, parasite or virus in culture; format: cell-based; conditions: Influenza A virus, ATCC2|H1N1|H3N2, MDCK, read-out: EC50 values (range over IAV strains)
[11] = tested on: A/Weiss/43 H1N1; test: microbe, parasite or virus in culture; conditions: Influenza A virus, H1N1, MDCK, 72 h, read-out: EC50 (50% effective concentration)
[12] = in vitro; format: cell-based; conditions: human
[13] = tested on: pro-inflammatory cytokines (TNF-α, IL-1β, IL-6, and IL-8); test: Cytokine mRNA in lungs of infected mice (qRT-PCR); format: in vivo, BALB/c mice; conditions: two, four and six days post-infection
[14] = tested on: A/Weiss/43 H1N1; test: Viral NP mRNA in lungs of infected mice (qRT-PCR); format: in vivo, BALB/c mice; conditions: two, four and six days post-infection
[15] = tested on: influenza A virus; format: cell-based; remark: listed apart in the source
[16] = tested on: A/Weiss/43 H1N1-induced apoptosis in A549 cells; format: cell-based; conditions: 24 h post-infection
[17] = tested on: A549 cells infected with A/Weiss/43 H1N1; format: cell-based; conditions: 24 h post-infection
[18] = 50 mg/kg/d intragastric, six days post infection
[19] = 100 mg/kg/d intragastric, six days post infection

COC1=C(c2ccc(Cl)cc2)C(=O)OC1(C)COS(=O)(=O)Cc1ccccc1 (stereo not shown) [Compound 3D]
EC50 [1]: 18.1 ± 2.6 µM | levels of NP mRNA in IAV-infected MDCK cells [2]: decrease in the levels of NP mRNA | SI (ratio of CC50 to EC50) [3]: 29.68 | antiviral activity against A/Weiss/43 H1N1 (in words) [3]: presented the antiviral activity | viability at 72 h, 800 µM [4]: ~40% | CC50 at 72 h [4]: 365 ± 1.58 µM | expression of influenza M2 protein ([5]; 30, 50, 80 µM): inhibited | IAV-induced upregulation of Bax/Bcl-2 ([5]; A549 cells): reduced this upregulation | inhibitory effect on viral replication, added before viral adsorption [6]: almost no inhibitory effects | inhibitory effect, added during viral inoculation [6]: slight inhibitory effect | protective effect, added after viral adsorption [6]: significant protective effect | EC50 [7]: 24.1 ± 1.16 µM | Inhibition ratio of lung index ([8]; 25 mg/kg/d intragastric, six days post infection): 11.35% | Lung Index ([8]; 25 mg/kg/d intragastric, six days post infection (virus control 1.70 ± 0.06)): 1.51 ± 0.06 | Inhibition ratio of lung index [8, 18]: 28.47% | Lung Index [8, 18]: 1.22 ± 0.09 | Inhibition ratio of lung index [8, 19]: 33.21% | Lung Index [8, 19]: 1.14 ± 0.05 | clinical symptoms of infected mice [8]: relieve these symptoms | lung indexes versus virus control group (in words) ([8]; six days post infection): significantly lower than those in the virus control group | virus titers of A549 cells [9]: significantly decreased | EC50 [10]: 12.3 to 24.1 µM | EC50 [11]: 12.3 ± 0.53 µM | CC50 at 72 h [12]: 309 ± 9.96 µM | viability at 72 h, 800 µM [12]: ~40% | expressions of pro-inflammatory cytokines in mouse lungs [13]: inhibit the increased expressions of pro-inflammatory cytokines | expression of viral NP mRNA in IAV infected lungs [14]: decreased the expression of viral NP mRNA in a dose-dependent manner | levels of NP mRNA, time-of-addition [15]: significantly suppressed | apoptosis rate ([16]; 30 µM, infected A549 cells (virus control 32.85 ± 3.05%)): 21.93 ± 0.97% | apoptosis rate ([16]; 50 µM, infected A549 cells): 15.17 ± 2.87% | apoptosis rate ([16]; 80 µM, infected A549 cells): 7.23 ± 1.30% | mRNA expression of RIG-I, MAVS, TLR3, IRF3, IRF7 [17]: levels decreased | mRNA expression of cytokines and chemokines (IL-1β, IL-6, IL-8, TNF-α) ([17]; dose-dependent): significantly decreased

CCOC(=O)C1=C[C@@H](OC(CC)CC)[C@H](NC(C)=O)[C@@H](N)C1 [Oseltamivir, reference compound]
EC50 [1]: 6.97 ± 0.38 µM | SI (ratio of CC50 to EC50) [3]: >1403.51 | CC50 at 72 h [4]: > 800 µM | EC50 [7]: 9.47 ± 2.48 µM | Inhibition ratio of lung index [8, 18]: 35.99% | Lung Index [8, 18]: 1.09 ± 0.12 | clinical symptoms of infected mice [8]: relieve these symptoms | lung indexes versus virus control group (in words) ([8]; six days post infection): significantly lower than those in the virus control group | EC50 [11]: 0.57 ± 0.29 µM | expressions of pro-inflammatory cytokines in mouse lungs [13]: inhibit the increased expressions of pro-inflammatory cytokines

NC(=O)c1ncn([C@@H]2O[C@H](CO)[C@@H](O)[C@H]2O)n1 [Ribavirin]
EC50 [1]: 13.9 ± 1.06 µM | CC50 at 72 h [4]: 608 ± 34 µM | EC50 [7]: 13 ± 3.74 µM | clinical symptoms of infected mice [8]: relieve these symptoms | EC50 [11]: 22.2 ± 0.76 µM | expressions of pro-inflammatory cytokines in mouse lungs [13]: inhibit the increased expressions of pro-inflammatory cytokines
